According to patent US20240197733A1, “A GABA RECEPTOR MODULATOR FOR USE IN THE TREATMENT OF PAIN” (SANIONA A/S, priority 2021, published 2024):

Experiments:
[1] = biological target: GABAA receptors containing the a3 subunit (Homo sapiens, UniProt P18507+P34903); settings: cited from earlier work
[2] = test system: electrocutaneous stimulation-induced facial pain rodent model; assay: ES-induced facial pain model, cold thermal allodynia (acetone test), acute treatment; format: in vivo, Sprague-Dawley rats
Source text: The electrocutaneous stimulation-induced facial pain rodent model is a reproducible orofacial pain model in which depilated cheek area of rats are repeatedly subjected to electrical stimulation. Repeated electrical stimulation at low intensities produces craniofacial pain that mimics the behavioral characteristics of TN such as development of mechanical and thermal allodynia at cheeks despite no visible edema, swelling or excessive injury and tissue damage.
Male wild type, Sprague-Dawley rats (Charles River Laboratories) born in-house at AfaSci Research Laboratory between May 24, 2020 to May 28, 2020. At approximately 3 months of age (approximately 350 g-450 g body weight) the rats were deemed suitable for the electrocutaneous stimulation-induced facial pain model. Prior to the experiment, the rats were maintained in group cages (3 rats per cage) in a controlled environment (temperature: 21.5±4.5° C./relative humidity: 35-55%) under a standard 12 h light/12 h dark lighting cycle (lights on at 06:00).
The required quantity of the compounds are weighed and dissolved in 100% DMSO in a volume amounting to 5% of the total volume while placed on a stirrer. The weight of the compounds refers to the free base weights. […]
Second baseline measurement was carried out similarly to day 1. […] For each animal, the average of the two baseline nociceptive measurements were calculated within each pain modality (mechanical, heat- and cold pain), and used as baseline (“Baseline” point on figures).
Similarly, to day 1- and 2, all rats were subjected to acclimatization to test equipment and decapicone followed by measurements of ES-induced facial mechanical- heat- and cold allodynia (“0” time point on figures). […] Compound 1, vehicle and Carbamazepine was administered perorally in doses of 1, 3, and 10 mg/kg (Compound 1) or 30 mg/kg (carbamazepine) and drug effects on pain thresholds were evaluated 2- and 4 hours after drug administration by assessment of mechanical- (von Frey) and thermal hypersensitivity (heat- and cold stimulation respectively). […]

[3] = test system: electrocutaneous stimulation-induced facial pain rodent model; assay: ES-induced facial pain model, hot thermal hyperalgesia (lamp test), prophylactic and acute treatment; format: in vivo, Sprague-Dawley rats; settings: for development of heat hyperalgesia vs vehicle: day 9 at 0 time
Experimental: Immediately following assessment of mechanical pain threshold, thermal (hot- and cold induced) pain was determined. Hot thermal pain thresholds were assessed by measuring each rat's facial withdrawal latency (seconds) in response to thermal stimulation on the depilated and stimulated rat cheek by using Yeomans' Thermal Testing Lamp with the following settings: Lamp fixed ˜7 cm above depilated left cheek of rat, Voltage regulator was set to 45V for C fiber testing. Cutoff was set at 20 seconds to avoid tissue damage. Unless stated otherwise, the same materials, methods, and provisions of Example 1 were applied to Example 2. The required quantity of the compound is weighed and dissolved in 100% DMSO in a volume amounting to 5% of the total volume while placed on a stirrer. The weight of the compounds refers to the free base weights. Once the solution becomes clear/transparent, the remaining volume of the vehicle is added (30% HPBCD prepared in MQ water) to final concentrations of 0.03, 0.1, and 0.3 mg/ml for Compound 1. The solutions are kept on a stirrer before- and during administration of the compounds to the animals. The experimenter assessing the behavioral responses to drug administration is blinded to the drug treatment to the animals. Each treatment group is coded according the scheme below: • A. Vehicle (5% DMSO+30% HPBCD): 10 ml/kg • B. Compound 1: 0.3 mg/kg • C. Compound 1: 1 mg/kg • D. Compound 1: 3 mg/kg • F. Compound 1: 3 mg/kg—acute Second baseline measurement was carried out similarly to day 1, For each animal, the average of the two baseline nociceptive measurements was calculated within each pain modality (mechanical, heat- and cold pain), and used as baseline (“Baseline” point on figures). Then all rats in the above respective group (A-D) are given treated as mentioned. Group F received vehicle treatment. Treatment is continued once daily to each group same as Day 2 All rats were treated with respective treatment as per day 3-7. After 1 hr of treatment, each rat was subjected to 1 hr of electrocutaneous stimulation at depilated cheek (0.4 mA intensity, 10 ms duration, 1 s inter-pulse interval). Similar to day 1- and 2, all rats were acclimatized to test equipment followed by measurements of ES-induced facial mechanical- heat- and cold allodynia (“0” time point on figures). After measurement of hypersensitivity threshold, rats from group A-D received the vehicle and three doses of Compound 1 as mentioned above while group F received single acute dose of 3 mg/kg of Compound 1. Treatment effects on pain thresholds were evaluated 2- and 4 hours after administration by assessing mechanical- (Von Frey) and thermal (heat and cold) withdrawal threshold.

GABAA receptors containing the a3 subunit, sequence (P34903 29-492): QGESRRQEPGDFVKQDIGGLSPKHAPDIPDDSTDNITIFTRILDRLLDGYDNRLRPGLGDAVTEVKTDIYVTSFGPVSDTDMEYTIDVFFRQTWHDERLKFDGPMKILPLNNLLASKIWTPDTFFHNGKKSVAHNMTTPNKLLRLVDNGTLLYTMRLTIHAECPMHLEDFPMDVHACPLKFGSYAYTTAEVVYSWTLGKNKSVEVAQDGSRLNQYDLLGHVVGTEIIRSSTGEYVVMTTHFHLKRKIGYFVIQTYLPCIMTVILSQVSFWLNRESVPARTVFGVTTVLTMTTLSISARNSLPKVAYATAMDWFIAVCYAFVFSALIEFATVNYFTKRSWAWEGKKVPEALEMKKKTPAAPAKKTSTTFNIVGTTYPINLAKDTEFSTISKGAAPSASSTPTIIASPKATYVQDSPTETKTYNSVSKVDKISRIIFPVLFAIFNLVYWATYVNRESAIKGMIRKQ
GABAA receptors containing the a3 subunit, sequence (P47870 25-512 partner limits assumed): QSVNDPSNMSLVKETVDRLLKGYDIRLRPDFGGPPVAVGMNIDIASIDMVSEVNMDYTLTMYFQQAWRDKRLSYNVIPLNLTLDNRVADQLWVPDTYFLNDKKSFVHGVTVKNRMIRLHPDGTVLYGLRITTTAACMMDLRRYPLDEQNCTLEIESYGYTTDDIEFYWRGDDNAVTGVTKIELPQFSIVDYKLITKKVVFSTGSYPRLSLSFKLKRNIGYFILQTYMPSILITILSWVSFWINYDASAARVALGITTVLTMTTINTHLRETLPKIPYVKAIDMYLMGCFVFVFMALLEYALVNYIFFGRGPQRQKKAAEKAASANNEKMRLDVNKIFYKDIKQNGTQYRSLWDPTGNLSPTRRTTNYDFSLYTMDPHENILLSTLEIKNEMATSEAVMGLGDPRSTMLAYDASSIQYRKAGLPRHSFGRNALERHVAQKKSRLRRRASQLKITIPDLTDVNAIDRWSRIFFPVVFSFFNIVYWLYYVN
GABAA receptors containing the a3 subunit, sequence (P18507 40-475): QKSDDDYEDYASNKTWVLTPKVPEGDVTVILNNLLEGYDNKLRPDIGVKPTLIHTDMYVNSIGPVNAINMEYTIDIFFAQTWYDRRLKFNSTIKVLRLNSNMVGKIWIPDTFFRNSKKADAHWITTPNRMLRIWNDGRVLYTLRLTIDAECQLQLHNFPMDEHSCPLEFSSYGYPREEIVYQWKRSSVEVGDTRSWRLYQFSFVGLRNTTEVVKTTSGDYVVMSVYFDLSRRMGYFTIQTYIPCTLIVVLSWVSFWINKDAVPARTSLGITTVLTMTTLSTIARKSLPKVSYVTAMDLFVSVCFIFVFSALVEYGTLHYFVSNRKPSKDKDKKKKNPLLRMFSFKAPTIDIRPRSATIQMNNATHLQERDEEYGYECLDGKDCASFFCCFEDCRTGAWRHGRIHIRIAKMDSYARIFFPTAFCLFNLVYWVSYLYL

## COc1ncc(-c2cccc(-n3cnc4cc(C(C)(C)O)cnc43)c2)c(OC)n1 [Compound 1, 2-(3-(3-(2,4-dimethoxypyrimidin-5-yl)phenyl)-3H-imidazo[4,5-b]pyridin-6-yl)propan-2-ol]
[1]
  modulation of GABAA receptors containing the a3 subunit: positive allosteric modulator (PAM)
[2]; 10 mg/kg po, 2 and 4 hours of treatment, p<0.001 and p<0.0001 vs vehicle
  effect on cold pain threshold (acetone test, facial withdrawal latency) vs vehicle: significant enhancement of the cold pain threshold
[2]; po, p<0.01 after 2 and 4 hrs of dosing vs vehicle
  minimum effective dose, cold allodynia (acetone test): 3 mg/kg
[3]; acute 3 mg/kg po on day 9, p<0.0001 post 2 and 4 hrs
  effect on established heat hyperalgesia vs vehicle: reversed the heat hyperalgesia
[3]; prophylactic 0.3 mg/kg po plus additional dose on day 9, p<0.05 post 2 hrs, p<0.001 post 4 hrs
  effect on established heat hyperalgesia vs vehicle: further enhanced the analgesic effect
[3]; prophylactic 1 mg/kg po once daily for 7 days, p<0.05 vs vehicle
  development of heat hyperalgesia vs vehicle: significantly reduced the development of heat hyperalgesia
[3]; prophylactic 1 mg/kg po plus additional dose on day 9, p<0.0001 post 2 hrs and post 4 hrs
  effect on established heat hyperalgesia vs vehicle: further enhanced the analgesic effect
[3]; prophylactic 3 mg/kg po once daily for 7 days, p<0.0001 vs vehicle
  development of heat hyperalgesia vs vehicle: significantly reduced the development of heat hyperalgesia
[3]; prophylactic 3 mg/kg po plus additional dose on day 9, p<0.0001 post 2 hrs and post 4 hrs
  effect on established heat hyperalgesia vs vehicle: further enhanced the analgesic effect
